Consider 3 compounds from patent publication US9434976B2, “Modification of sample preparation to differentiate live and dead bacteria by polymerase chain reaction assay” (priority 2013, dated 2016).

“Also recorded” adds a separate entry of the source. Read-outs that look alike come from different tables or passages of the source.

In one data set the test system is Escherichia coli 0157:H7. As to the kind of experiment: Real time PCR of live, heat-killed or isopropyl alcohol-killed E. coli after treatment with a DNA-binding chemical. Format: cell-based. Conditions: for Blocking of amplification of DNA from dead bacteria: dead E. coli; for Penetration into E. coli and blocking of PCR amplification: recommended concentration; for PCR amplification product from live versus killed E. coli: Gel Red 3x stock. The method, then: (§1) Various amounts of Gel Red™ can be added to the isolated microbe. Originally the GelRed™ is available at 10,000× solution in water or 3× staining solution in H2O (working solution). The base for the concentration calculation refers to working solution or 3×. In FIGS. 2-4 various dilutions were reported (1:1, 1:10 and 1:100). “1:1” means where 1.0 μl of commercially available Gel Red™ at 3× is diluted in 1.0 μl diluent (such as water). “1:10” means where 1.0 μl of commercially available Gel Red™ at 3× is diluted in 10.0 μl diluent (such as water). “1:100” means where 1.0 μl of commercially available Gel Red™ at 3× is diluted in 100.0 μl diluent (such as water).
(§2) Bacterial species included in these experiments were E. coli, L. monocytogens, and S. Typhimurium. Fresh culture was suspended in a buffer and placed in three tubes (live bacteria, heat-killed and isopropanol-killed bacteria). The first tube contained live bacteria without treatment, and the second and the third tube were inactivated by heat and isopropanol, respectively. The DNA-intercalating chemicals used in this experiment were PMA, EMA and other DNA-binding chemicals, which were not previously reported. The experiments were performed to study the application of sample modification with DNA-binding chemicals to enable PCR to amplify samples only from viable bacteria. […] The bacterial sample was modified with PMA or combined with high voltage light exposure to assess the combined treatment effect.
A sample containing E. coli was tested. One sample included live E. coli. Another sample included heat killed E. coli and another sample contained isopropyl alcohol killed E. coli. In FIG. 2, Compound CE stands for Gel Red™. Real time PCR was run on the samples. […] The Gel Red™ was too highly concentrated that it penetrated all of E. coli even in the “live sample. […] The Gel Red™ was too weak to get into the intact cell membrane of the live E. coli.
In this reaction, the amplification was run using primers that targeted the per gene (which encodes perosamine synthetase).

For data set [1] the following is noted: cited from earlier work.
The subject of the next data set is bacterial sample. As to the kind of experiment: PMA sample modification combined with high voltage light exposure, PCR. Format: cell-based.
From the text: as §2

For the next data set, the system named is Listeria monocytogenes. As to the kind of experiment: Real time PCR of live, heat-killed or isopropyl alcohol-killed L. monocytogenes after treatment with a DNA-binding chemical. Format: cell-based. Conditions: for Blocking of amplification of DNA from dead bacteria: dead L. monocytogens; for PCR product from live versus killed L. monocytogenes: Gel Red 3x stock. As for the experimental part: as §1, §2
A sample containing L. monocytogenes was tested. One sample included live L. monocytogenes. Another sample included heat killed L. monocytogenes and another sample contained isopropyl alcohol killed L. monocytogenes. In FIG. 3, Compound CE stands for Gel Red™. Real time PCR was run on the samples.
In this reaction, the amplification was run using primers that targeted the Hly 9125 gene (which encodes listeriolysin O protein).
(In general: Real-time PCR tracks product formation cycle by cycle.)

For another data set, the system named is Salmonella Typhimurium. As to the kind of experiment: Real time PCR of live, heat-killed or isopropyl alcohol-killed Salmonella Typhimurium after treatment with a DNA-binding chemical. Format: cell-based. Conditions: for Blocking of amplification of DNA from dead bacteria: dead S. typhimurium; for PCR product from live versus killed Salmonella Typhimurium: Gel Red 3x stock. As for the experimental part:
as §1, §2
A sample containing Salmonella Typhimurium was tested. One sample included live Salmonella Typhimurium. Another sample included heat killed Salmonella Typhimurium and another sample contained isopropyl alcohol killed Salmonella Typhimurium. In FIG. 4, Compound CE stands for Gel Red™. Real time PCR was run on the samples.
In this reaction, the amplification was run using primers that targeted the ycdC gene (which encodes a putative transcriptional repressor protein).

For data set [2] the following is noted: cited from earlier work. The source holds these as a separate data set.
Setting [3] is: concentrations well above the working concentrations used in gel staining.

On to `CC[N+](C)(CC)CCC[n+]1c(-c2ccccc2)c2cc(N=[N+]=[N-])ccc2c2ccc(N)cc21` [PMA, propidium monoazide], for which the “Blocking of amplification of DNA from dead bacteria” value in the data set with Escherichia coli 0157:H7, in the data set on Listeria monocytogenes and in the data set on Salmonella Typhimurium was “completely blocks the amplification of DNA from dead; also recorded: can block the amplification of DNA from dead bacteria” throughout. For the same compound, the “Penetration into E. coli and blocking of PCR amplification” value with Escherichia coli 0157:H7 was “penetrates only live E. coli”. The “Cytotoxicity (Description)” value in data set [1] (Table 1) is “substantially lower”. Further, the “Effect of PMA combined with light exposure compared with PMA only” value in the data set on bacterial sample is “not much different from using only PMA”.

`Nc1ccc2c(c1)c(-c1ccccc1)[n+](CCCCCC(=O)NCCCOCCOCCOCCCNC(=O)CCCCC[n+]1c(-c3ccccc3)c3cc(N)ccc3c3ccc(N)cc31)c1cc(N)ccc21.[I-].[I-]` [Gel Red™, 5, 5′-(6, 22-dioxo-11, 14, 17-trioxa-7, 21-diazaheptacosane-1, 27-diyl)bis(3,8-diamino-6-phenylphenanthridin-5-ium) iodide]: the “PCR amplification product from live versus killed E. coli” value in the data set with Escherichia coli 0157:H7 (dilution 1:1) is reported as “no PCR products even in the sample containing the live bacteria”; in the data set with Escherichia coli 0157:H7 (dilution 1:10) it was “signal from live but not from killed samples”; in the data set on Escherichia coli 0157:H7 (dilution 1:100), “amplification products in all samples, including the killed bacteria samples”. In data set [1] (Table 1), the “Cytotoxicity (Description)” value is recorded as “noncytotoxic”. Also, the Cytotoxicity result in data set [1] (setting [3]) was “noncytotoxic”. Also, the Hazard entry in data set [1] (setting [3]) was “nonhazardous”. In data set [1] (setting [3]), the Mutagenicity entry was “nonmutagenic”. For the same compound, in data set [2] (Table 1, normal light), the “Stability under normal light” value is “light (photostable)”. Also, the Stability entry in data set [2] (Table 1) is recorded as “stable”; in data set [2] (general statement), “extremely stable”. Besides, the “PCR product from live versus killed L. monocytogenes” value in the data set on Listeria monocytogenes (dilution 1:1) is given as “no PCR products”; with Listeria monocytogenes (dilution 1:10), “signal from live but not from killed samples”; in the data set on Listeria monocytogenes (dilution 1:100), “signal from live but not from killed samples”. The “PCR product from live versus killed Salmonella Typhimurium” value in the data set on Salmonella Typhimurium (dilution 1:1) is “no PCR products”; in the data set with Salmonella Typhimurium (dilution 1:10), “no PCR products”; in the data set with Salmonella Typhimurium (dilution 1:100), “signal from live but not from killed samples”.

As for ethidium monoazide bromide [EMA], the “Blocking of amplification of DNA from dead bacteria” value in the data set with Escherichia coli 0157:H7, in the data set on Listeria monocytogenes and in the data set with Salmonella Typhimurium was “can block the amplification of DNA from dead bacteria” throughout. Moreover, the “Penetration into E. coli and blocking of PCR amplification” value with Escherichia coli 0157:H7 is on record as “penetrates only live E. coli”. Besides, in data set [1] (Table 1), the Harmfulness result is recorded as “Potentially harmful”. Also, in data set [2] (Table 1), the Solubility result is given as “Soluble in DMF or EtOH”.
